In patent US8653304B2, “2,3-dihydro-1H-indene-2-yl urea derivative and pharmaceutical application of same” (Toray Industries, Inc., priority 2009, dated 2014):
Counter-ions that a name gives are not always drawn.

Experiments:
[1] = test system: U937 cells; assay: Ability to induce drug-induced phospholipidosis (U937, Nile red, flow cytometer); format: cell-based, human; details: 48 hours, 20 μM, fluorescence intensity compared to valproic acid 300 μM
Experimental: The evaluation of Comparative Compound 4c, which was a comparative control compound, was carried out by a method partially modified from the method described in Cell Biology and Toxicology (2003, Vol. 19, pp. 161-176).
Each test compound was mixed with U937 cells, which are a cell line derived from human monocytes, and the cells were cultured in the presence of 5% CO2 at 37° C. for 48 hours. The cell suspension after the culturing was replaced with a PBS solution containing Nile red (Invitrogen) which is a phospholipid staining solution, and the resulting mixture was allowed to react in the dark at room temperature for 10 minutes. After centrifugal washing with PBS solution, the fluorescence intensity was measured with a flow cytometer (Becton Dickinson) (Excitation Wavelength: 488 nm, Detection Region: 515-545 nm). As a negative control substance, valproic acid (300 μM) was used. […] Each test compound was dissolved in DMSO before use, and the resulting solution was added to the cells such that the final concentration of DMSO was 1%.

[2] = test system: Human CYP (Cytochrome P450); assay: Metabolic stability in human CYP (human liver microsomes); format: in vitro ADME; details: human liver microsomes 0.5 mg/mL, NADPH, 37° C., comparative control compounds 5 μM
Experimental: Each test compound was mixed at a concentration of 2 μM with a phosphate buffer solution containing Human liver microsomes (Xenotech) in an amount of 0.5 mg/mL. Thereafter, NADPH was added thereto, and the obtained mixture was allowed to react at 37° C. for up to 30 minutes. The reaction was terminated by adding acetonitrile, and then the resultant was centrifuged for 10 minutes at 4° C. to collect a supernatant. The supernatant was pretreated by methanol extraction method, and the concentration of the compound was analyzed by LC/MS/MS (ESI positive mode). The compound remaining rate was calculated from the obtained concentration of the compound.

- microsomal CLint at 5 μM [2]: 321 µL/min/mg
Structure (SMILES): Cc1ccc(-n2nc(C(C)(C)C)cc2NC(=O)Nc2ccc(OCCN3CCOCC3)c3ccccc23)cc1 [Comparative Compound 4c, 1-(3-tert-butyl-1-p-tolyl-1H-pyrazol-5-yl)-3-(4-(2-morpholinoethoxy)naphthalen-1-yl)urea.hydrochloride]
- phospholipidosis judgement [1]: positive
